Measured values published in patent US10195258B2, “Tape preparation of WT1 peptide cancer vaccine for transdermal administration” (NITTO DENKO CORPORATION, priority 2013, dated 2019).

Tested on: antigen-specific cellular immunity (IFN-γ-producing spleen cells)
Assay: Mouse immunization test 1 (tape preparation), ELISPOT
Format: in vivo, genetically modified mouse (HLA-A*0201 type MHC)
Settings: acid added to WT1 peptide tape preparation (Table 1)
Description: Mouse immunization test was performed with the tape preparations using a model animal for immunological evaluation. Evaluation of the immunity induction level was performed by the ELISPOT method. Specifically, the hair of the back of the mouse was cut. The mouse was kept until it recovered from the skin damage due to the hair cutting. After that, a sample was applied to the back of the mouse for the predetermined time, and then removed. Then, the mouse was kept for predetermined days and the level of the antigen-specific cellular immunity was evaluated. After predetermined days from the application of the sample, the spleen was isolated and a spleen cell suspension was prepared. Spleen cells (3×10^6 cells/well) and the antigen peptide (100 μM) together with the culturing medium were placed into a well of an ELISPOT plate on which an anti-mouse IFN-γ antibody had been immobilized. The plate was cultured for 20 hours under the condition of 37° C. and 5% CO2. The number of the spots representing IFN-γ-producing cells (spot number/3×10^6 cells) was evaluated by the ELISPOT method.
The amount of administration of the tape preparation was set to 0.7 cm^2 as described above, the number of administrations was (24 hr/week)×once, and extraction of the spleen was carried out 6 days after the administration. The mouse used for the experiment was a genetically modified mouse by which cellular immunity induction caused by HLA-A*0201 type MHC-restricted peptide can be evaluated.
In Example 8, administration was carried out on skin that was injured with a microcutter (MICRO FEATHER No. 7330G, manufactured by Feather Safety Razor Co., Ltd.).

| SMILES | Promotion of cellular immunity induction by acid as second cellular immunity induction promoter |
| --- | --- |
| CCCCCCCCCCCCCC(=O)O [myristic acid] | particularly effective |
| CCCCCCCCCCCCCCCCCC(=O)O [stearic acid] | effective |
| CCCCCCCC/C=C\CCCCCCCC(=O)O [oleic acid] | particularly effective |
| CCCCCCCCCC(=O)O [decanoic acid] | effective |
| CCCCCCCCCCCC(=O)O [lauric acid] | particularly effective |
| CCCCCCCCCCCCCCCC(=O)O [palmitic acid] | effective |
| CC(O)C(=O)O (stereo not drawn) [lactic acid] | particularly effective |
| CC(C)CCCCCCCCCCCCCCC(=O)O [isostearic acid] | particularly effective |
| CCCCCCCC(=O)O [octanoic acid] | effective |
